Where two headings read alike, the source gives them in different places.
Experiments:
SARS CoV-2 PLpro [1] = biological target: T1, SARS CoV-2 PLpro (Severe acute respiratory syndrome coronavirus 2 (2019-nCoV) (SARS-CoV-2), UniProt P0DTD1); assay: biochemical; type: biochemical
in vitro = settings: human, Caco-2
SARS CoV-2 PLpro [2] = biological target: T1, SARS CoV-2 PLpro; assay: biochemical; type: binding
[3] = Table 7, read-out: Enzymatic assay IC50
[4] = Table 7, read-out: SPR binding assay KD
[5] = read-out: Enzyme inhibition IC50
[6] = read-out: SPR binding assays KD

With `Cc1ccc([N+](=O)[O-])cc1C(=O)NC(C)c1c[nH]c2ccccc12` (centres unmarked) the IC50 (SARS CoV-2 PLpro [1]; [3]) was greater than 100 µM.

`Cc1ccc(NC2CNC2)cc1C(=O)N[C@H](C)c1cccc(-c2ccc(CN[C@H]3CC[C@@H](OC(=O)/C=C/c4cccnc4)C3)s2)c1` showed an IC50 (SARS CoV-2 PLpro [1]; [3]) of 0.387 µM.

In the case of `Cc1ccc(NC2CNC2)cc1C(=O)N[C@H](C)c1cccc(-c2ccc(CO)s2)c1`, the IC50 (SARS CoV-2 PLpro [1]; [3]) is reported as 1.57 µM.

With `Cc1ccc(NC2CNC2)cc1C(=O)N[C@H](C)c1cccc(-c2ncc(CN3CCCC3)s2)c1` the IC50 (SARS CoV-2 PLpro [1]; [3]) was 3.14 µM.

Work on `CCOC(=O)[C@@H]1CC[C@H](NCc2cnc(-c3cccc([C@@H](C)NC(=O)c4cc(NC5CNC5)ccc4C)c3)s2)C1` yielded an IC50 (SARS CoV-2 PLpro [1]; [3]) of 0.496 µM.

With `Cc1ccc(NC2CNC2)cc1C(=O)N[C@H](C)c1cccc(-c2ccc(CNC(=O)C(F)(F)C(F)(F)F)s2)c1` the IC50 (SARS CoV-2 PLpro [1]; [3]) was 0.442 µM.

For `Cc1ccc(N)cc1CNC(C)c1cccc2ccccc12` (centres unmarked) [DY2-64], the “PLpro inhibition potency, in words (SAR)” value (SARS CoV-2 PLpro [1]) was “sharp decline in potency”.

In the case of `Cc1ccc(N)cc1S(=O)(=O)NC(C)c1cccc2ccccc12` (centres unmarked) [DY3-63], the “PLpro inhibition potency, in words (SAR)” value (SARS CoV-2 PLpro [1]) is reported as “sharp decline in potency”.

For `C[C@H]1O[C@@H](O[C@H]2[C@@H](O)C[C@H](O[C@H]3[C@@H](O)C[C@H](O[C@H]4CC[C@@]5(C)[C@H](CC[C@@H]6[C@@H]5C[C@@H](O)[C@]5(C)[C@@H](C7=CC(=O)OC7)CC[C@]65O)C4)O[C@@H]3C)O[C@@H]2C)C[C@H](O)[C@@H]1O` [Digoxin], the Papp A→B (in vitro) was 0.4 ×10⁻⁶ cm/s and the Papp B→A (in vitro) was 10.4 ×10⁻⁶ cm/s.

`Cc1ccc(NC2CN(C(=O)OC(C)(C)C)C2)cc1C(=O)N[C@H](C)c1cccc2ccccc12` [Example 1, Tert-butyl (R)-3-((4-methyl-3-((1-(naphthalen-1-yl)ethyl)carbamoyl)phenyl)amino)azetidine-1-carboxylate] gave an IC50 (SARS CoV-2 PLpro [1]; read-out: Enzymatic assay IC50) of 6.1 µM and a Kd (SARS CoV-2 PLpro [2]; read-out: SPR binding assay KD) of 16 µM.

`Cc1ccc(NC2CCN(C(=O)OC(C)(C)C)CC2)cc1C(=O)N[C@H](C)c1cccc2ccccc12` [Example 2, Tert-butyl (R)-4-((4-methyl-3-((1-(naphthalen-1-yl)ethyl)carbamoyl)phenyl)amino)piperidine-1-carboxylate] showed an IC50 (SARS CoV-2 PLpro [1]; read-out: Enzymatic assay IC50) of 1.1 µM and a Kd (SARS CoV-2 PLpro [2]; read-out: SPR binding assay KD) of 4.7 µM.

For `Cc1ccc(NC(=O)C2CN(C(=O)OC(C)(C)C)C2)cc1C(=O)N[C@H](C)c1cccc2ccccc12` [Example 3, Tert-butyl (R)-3-((4-methyl-3-((1-(naphthalen-1-yl)ethyl)carbamoyl)phenyl)carbamoyl)azetidine-1-carboxylate], the IC50 (SARS CoV-2 PLpro [1]; read-out: Enzymatic assay IC50) was 5.5 µM and the Kd (SARS CoV-2 PLpro [2]; read-out: SPR binding assay KD) was 32.6 µM.

In the case of `Cc1ccc(NC(=O)C2CCN(C(=O)OC(C)(C)C)CC2)cc1C(=O)N[C@H](C)c1cccc2ccccc12` [Example 4, Tert-butyl (R)-4-((4-methyl-3-((1-(naphthalen-1-yl)ethyl)carbamoyl)phenyl)carbamoyl)piperidine-1-carboxylate], the IC50 (SARS CoV-2 PLpro [1]; read-out: Enzymatic assay IC50) is reported as 6 µM and the Kd (SARS CoV-2 PLpro [2]; read-out: SPR binding assay KD) is reported as 31.1 µM.

With `Cc1ccc(NC2CNC2)cc1C(=O)N[C@H](C)c1cccc2ccccc12` [Example 5, (R)-5-(azetidin-3-ylamino)-2-methyl-N-(1-(naphthalen-1-yl)ethyl)benzamide] the Kd (SARS CoV-2 PLpro [2]; [4]) was 0.81 µM.

In the case of `Cc1ccc(N)cc1C(=O)NC(C)c1cccc2cc[nH]c12` (centres unmarked) [Example 18, N-(1-(1H-indol-7-yl)ethyl)-5-amino-2-methylbenzamide], the IC50 (SARS CoV-2 PLpro [1]; read-out: Enzymatic assay IC50) is reported as 4.7 µM and the Kd (SARS CoV-2 PLpro [2]; read-out: SPR binding assay KD) is reported as 30.3 µM.

`Cc1ccc(N)cc1C(=O)NC(CO)c1cccc2ccccc12` (centres unmarked) [Example 26, 5-amino-N-(2-hydroxy-1-(naphthalen-1-yl)ethyl)-2-methylbenzamide] showed an IC50 (SARS CoV-2 PLpro [1]; [3]) of roughly 100 µM.

Work on `Cc1ccc(N)cc1C(=O)N[C@H](C)c1c(O)ccc2ccccc12` [Example 27, (R)-5-amino-N-(1-(2-hydroxynaphthalen-1-yl)ethyl)-2-methylbenzamide] yielded an IC50 (SARS CoV-2 PLpro [1]; [3]) greater than 100 µM and a Kd (SARS CoV-2 PLpro [2]; read-out: SPR binding assay KD) of 184 µM.

Molecule `Cc1ccc(N(C)C2CNC2)cc1C(=O)N[C@H](C)c1c(OC2CNC2)ccc2ccccc12` [Example 30, (R)-5-(azetidin-3-yl(methyl)amino)-N-(1-(2-(azetidin-3-yloxy)naphthalen-1-yl)ethyl)-2-methylbenzamide] has an IC50 (SARS CoV-2 PLpro [1]; [3]) greater than 100 µM.

For `Cc1ccc(N)cc1C(=O)N[C@H](C)c1cccc2cccnc12` [Example 35, (R)-5-amino-2-methyl-N-(1-(quinolin-8-yl)ethyl)benzamide], the Kd (SARS CoV-2 PLpro [2]; [4]) was greater than 1000 µM.

Molecule `CN(C)CC[C@@H](NC(=O)c1cccc(N(C)C2CNC2)c1)c1cccc2ccccc12` [Example 41, (R)-3-(azetidin-3-yl(methyl)amino)-N-(3-(dimethylamino)-1-(naphthalen-1-yl)propyl)benzamide] has an IC50 (SARS CoV-2 PLpro [1]; [3]) greater than 100 µM.

`Cc1ccc(N)cc1S(=O)(=O)N[C@H](C)c1cccc2ccccc12` [Example 48, (R)-5-amino-2-methyl-N-(1-(naphthalen-1-yl)ethyl)benzenesulfonamide] showed an IC50 (SARS CoV-2 PLpro [1]; [3]) greater than 100 µM.

For `Cc1ccc(N(C)C2CNC2)cc1C(=O)N[C@H](C)c1cccc2c1ccn2CC1CCC1` [Example 50, (R)-5-(azetidin-3-yl(methyl)amino)-N-(1-(1-(cyclobutylmethyl)-1H-indol-4-yl)ethyl)-2-methylbenzamide], the IC50 (SARS CoV-2 PLpro [1]; read-out: Enzymatic assay IC50) was 3.3 µM and the Kd (SARS CoV-2 PLpro [2]; read-out: SPR binding assay KD) was 14.1 µM.

With `C[C@@H](NC(=O)c1cc(NC2CNC2)ccc1Cl)c1csc2ccccc12` [Example 54, (R)-5-(azetidin-3-ylamino)-N-(1-(benzo[b]thiophen-3-yl)ethyl)-2-chlorobenzamide] the IC50 (SARS CoV-2 PLpro [1]; read-out: Enzymatic assay IC50) was 8.5 µM and the Kd (SARS CoV-2 PLpro [2]; read-out: SPR binding assay KD) was 33 µM.

In the case of `CC(C)NCC(O)COc1cccc2ccccc12` (centres unmarked) [Propranolol], the Papp A→B (in vitro) is reported as 17.9 ×10⁻⁶ cm/s, the Papp B→A (in vitro) is reported as 18.3 ×10⁻⁶ cm/s and the efflux ratio (in vitro) is reported as 1.02.

In the case of `Cc1ccc(NC2CN(C(=O)OC(C)(C)C)C2)cc1C(=O)N[C@H](C)c1cccc2ccccc12` [ZN-2-180], the IC50 (SARS CoV-2 PLpro [1]; [5]) is reported as 6.08 µM and the Kd (SARS CoV-2 PLpro [2]; [6]) is reported as 16 µM.

Molecule `Cc1ccc(NC2CCN(C(=O)OC(C)(C)C)CC2)cc1C(=O)N[C@H](C)c1cccc2ccccc12` [ZN-2-181] has an IC50 (SARS CoV-2 PLpro [1]; [5]) of 1.1 µM and a Kd (SARS CoV-2 PLpro [2]; [6]) of 4.7 µM.

In the case of `Cc1ccc(NC(=O)C2CCN(C(=O)OC(C)(C)C)CC2)cc1C(=O)N[C@H](C)c1cccc2ccccc12` [ZN-2-183], the IC50 (SARS CoV-2 PLpro [1]; [5]) is reported as 6 µM and the Kd (SARS CoV-2 PLpro [2]; [6]) is reported as 31.1 µM.

For `Cc1ccc(NC2CNC2)cc1C(=O)N[C@H](C)c1cccc2ccccc12` [ZN-2-184], the “PLpro inhibition potency, in words (SAR)” value (SARS CoV-2 PLpro [1]; compared with GRL0617 / parent) was “two-fold improvement relative to GRL0617”, the IC50 (SARS CoV-2 PLpro [1]; [5]) was 1.01 µM and the Kd (SARS CoV-2 PLpro [2]; KD2) was 1.17 µM. For the same molecule, the Kd (SARS CoV-2 PLpro [2]; KD3) was 1.06 µM, the Kd (SARS CoV-2 PLpro [2]; KD4) was 0.856 µM and the “rate of association relative to GRL0617” value (SARS CoV-2 PLpro [2]; SPR) was “twofold increase in rate of association”. For the same molecule, the Ave ka (SARS CoV-2 PLpro [2]; SPR association rate, average of replicates) was 340000 M⁻¹ s⁻¹, the ka1 (SARS CoV-2 PLpro [2]; SPR association rate, replicate 1) was 426000 M⁻¹ s⁻¹ and the ka2 (SARS CoV-2 PLpro [2]; SPR association rate, replicate 2) was 348000 M⁻¹ s⁻¹. The ka3 (SARS CoV-2 PLpro [2]; SPR association rate, replicate 3) was 231000 M⁻¹ s⁻¹, the ka4 (SARS CoV-2 PLpro [2]; SPR association rate, replicate 4) was 356000 M⁻¹ s⁻¹ and the Ave kd (SARS CoV-2 PLpro [2]; SPR dissociation rate, average of replicates) was 0.349 s⁻¹. For the same molecule, the kd1 (SARS CoV-2 PLpro [2]; SPR dissociation rate, replicate 1) was 0.438 s⁻¹, the kd2 (SARS CoV-2 PLpro [2]; SPR dissociation rate, replicate 2) was 0.407 s⁻¹ and the kd3 (SARS CoV-2 PLpro [2]; SPR dissociation rate, replicate 3) was 0.246 s⁻¹. For the same molecule, the kd4 (SARS CoV-2 PLpro [2]; SPR dissociation rate, replicate 4) was 0.305 s⁻¹ and the Kd (SARS CoV-2 PLpro [2]; [6]) was 1.03 µM.

`Cc1ccc(N)cc1C(=O)NC(CO)c1cccc2ccccc12` (centres unmarked) [ZN-3-13] showed an IC50 (SARS CoV-2 PLpro [1]; Table 11, read-out: Enzyme inhibition IC50) of roughly 100 µM and a Kd (SARS CoV-2 PLpro [2]; [6]) of 39.1 µM.

With `Cc1ccc(CNCC(=O)O)cc1C(=O)N[C@H](C)c1cccc2ccccc12` [ZN-3-56] the “PLpro inhibition potency, in words (SAR)” value (SARS CoV-2 PLpro [1]; compared with GRL0617 / parent) was “slight improvement of potency over GRL0617”.

For `C=C(N[C@H](C)c1cccc2ccccc12)C(=O)c1cc(N(C)C2CNC2)ccc1Cl` [ZN-3-70], the IC50 (SARS CoV-2 PLpro [1]; Table 10, read-out: Enzyme inhibition IC50) was 10.7 µM and the Kd (SARS CoV-2 PLpro [2]; Table 10, read-out: SPR binding assays KD) was 41.9 µM.

“(R)-6-amino-3-methyl-N- (1-(naphthalen-1- yl)ethyl)picolinamide [Example 40]” gave an IC50 (SARS CoV-2 PLpro [1]; read-out: Enzymatic assay IC50) of 10 to 100 µM and a Kd (SARS CoV-2 PLpro [2]; read-out: SPR binding assay KD) greater than 1000 µM.
